Results reported in patent US20260234188A1, “CHEMOKINE-BINDING PEPTIDES” (Oxford University Innovation Limited, priority 2022, published 2026).
Entries after “also recorded” stand apart in the source; their conditions may differ. Ends that are not written are not given here.

Tests used:
[1] = biological target: T1, CXCL10 (Homo sapiens, UniProt P02778); assay: CXCL10-induced activated T-cell migration, transwell assay; format: cell-based; details: peptide 10 μM, chemokine at EC80
T1 construct: purchased Peprotech
T1 sequence (P02778 22-98): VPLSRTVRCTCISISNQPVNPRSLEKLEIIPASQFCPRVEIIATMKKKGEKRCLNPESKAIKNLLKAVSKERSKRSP
Method: (§1) FIG. 2. […] BK1.2 is described in (Darlot, 2020). […] Chemokines used are indicated by the name, followed in parenthesis by the supplier code (P in supplier code indicates Peprotech). […] All experiments were performed at EC80 doses of indicated chemokine. Data are shown as box-whisker plots of three technical and three biological replicates. Statistically significant differences (compared to control, indicated by #), using Dunnett's test with correction for multiple comparisons, are indicated by asterisks: ****=P≤0.0001, ***=P≤0.001, **=P≤0.01, *=P≤0.05.
FIG. 11. […] Technical replicates are shown as individual data points. […] The response curve (solid blue line) and its 95% confidence interval (grey ribbon) were calculated using a 4-parameter log-logistic plot.
Briefly, cell migration assays use THP1 cells (human monocyte) and primary human buffy coat white cells (consisting of neutrophil granulocytes, monocytes, and lymphocytes), and activated T-cells. THP1 cells and primary monocytes respond to CCL2, CCL3, CCL5, CCL8 and CXCL4, granulocytes to CXCL1 and CXCL8, activated T-cells to CXCL9/10/11. Assays are performed in 96-well Boyden chambers, and migrated cells counted and characterized using and ATTUNE Flow Cytometer as described. […]

[2] = biological target: T2, CXCL11 (Homo sapiens, UniProt O14625); assay: CXCL11-induced activated T-cell migration, transwell assay; format: cell-based; details: peptide 10 μM, chemokine at EC80
T2 construct: purchased Peprotech
T2 sequence (O14625 22-94): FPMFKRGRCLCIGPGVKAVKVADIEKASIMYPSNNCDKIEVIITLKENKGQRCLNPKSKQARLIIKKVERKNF
Method: as §1
(§2) Briefly, cell migration assays use THP1 cells (human monocyte) and primary human buffy coat white cells (consisting of neutrophil granulocytes, monocytes, and lymphocytes), and activated T-cells. THP1 cells and primary monocytes respond to CCL2, CCL3, CCL5, CCL8 and CXCL4, granulocytes to CXCL1 and CXCL8, activated T-cells to CXCL9/10/11. Assays are performed in 96-well Boyden chambers, and migrated cells counted and characterized using and ATTUNE Flow Cytometer as described. Triplicate assays are performed at the EC80 dose of each chemokine at 10 μM peptide concentration.
(§3) The J:CXCR1 cell line was generated by transfecting Jurkat cells by electroporation with PvuI-linearized plasmid D1398 and selecting with blasticidin (Sigma-Aldrich, Cat #203350, […]). […] J:CXCR1 cells were cultured in RPMI-1640 media (Gibco), supplemented with 10% FBS and 5 mM L-Glutamine with blasticidin. For J:CXCR1 migration assays, 300,000 cells/well were added to the top chamber of a 3 μm Transwell insert (Corning) in 50 μL of migration media (RPMI-1640, 0.5% FBS, 4 mM L-Glutamine, 0.05% DMSO). The bottom chamber contained 150 μL of chemokine, with or without peptide. Cells were migrated at 37° C. in 5% CO2 for 4 hours. The plate was incubated on a shaking platform for 10 minutes, 800 rpm, at 37° C., and 150 μL from the bottom of the plate transferred into a U-bottom plate containing 50 μL of migration media. Cell counts were determined by Attune NxT Flow Cytometer Plate Reader (ThermoFisher), based on cell size parameters FSC-H/SSC-H. Experiments were performed in 3 technical and 3 biological replicates. THP-1 migration assays were carried out using methods known in the art. Activated T-cell assays were carried out using methods known in the art, with the following modifications in the isolation process. Peripheral blood cells were obtained from leucocyte cones (NHS Blood Transfusion Services), following which, T-cells were isolated using two rounds of human CD8+ T-cell isolation kit (480011, BioLegend). At day 10 after activation, T-cells were frozen at 20 E6 cells/ml in TexMACS medium supplemented with 10% DMSO (D2650, Sigma) in liquid nitrogen. Prior to use, activated T-cells were recovered for 24 hours in TexMACs medium at 0.3 E6 cells/ml and incubated at 37° C. in 5% CO2. Chemokine sources are described in Supplementary information Table 3. Statistical significances between control experimental groups was evaluated using Dunnett's test. IC50 experiments were performed at the EC80 dose of chemokine. EC80 was calculated by fitting a chemokine dose-response curve with 3 parameters (fixing the top to 100%). IC50 was calculated by fitting an inhibitor response curve with 4 parameters.

[3] = biological target: T3, CXCL9 (Homo sapiens, UniProt Q07325); assay: CXCL9-induced activated T-cell migration, transwell assay; format: cell-based; details: peptide 10 μM, chemokine at EC80
T3 construct: purchased Peprotech
T3 sequence (Q07325 23-125): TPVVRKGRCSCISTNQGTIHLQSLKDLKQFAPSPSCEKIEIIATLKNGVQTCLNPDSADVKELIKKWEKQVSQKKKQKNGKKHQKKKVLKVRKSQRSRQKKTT
Method: as §1, §2, §3

[4] = system: panel of up to 42 human chemokines; assay: Phage-display next generation sequencing screen of overlapping hexadecapeptide libraries, chemokines displayed on streptavidin beads; format: binding; details: log2E greater than 5, chemokines named by first part of UniProt Entry Name, peptides binding complement C5a (control) excluded;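 further: chemokine listed when log2 fold enrichment exceeds 5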
Summary of the method: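 Phage-display libraries of 55662 overlapping hexadecapeptides from tick and viral chemokine-binding proteins, human chemokines and chemokine receptors screened against up to 42 human chemokines, with hits found by next-generation sequencing. Peptides mapped to parent-protein position with log2 fold enrichment; regions of interest where cumulative residue log2 E exceeds the 95% upper CI of the protein median.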

[5] = biological target: T4, panel of 25 biotinylated chemokines (Homo sapiens, UniProt P48061); assay: Phage-display screen of HD2 combinatorial mutagenesis library; format: binding; details: CXCL12
T4 construct: purchased Almac or ProteinFoundry
T4 sequence (P48061 22-89 limits assumed): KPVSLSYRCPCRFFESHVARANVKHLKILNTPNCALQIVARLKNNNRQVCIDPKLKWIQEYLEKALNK
Source text: FIG. 20. Phage display-combinatorial mutagenesis. FIG. 20A, Tile-plot (bottom panel) showing impact of selected HD2 mutations on Δlog 2 E for all chemokines studied. Δlog 2 E is the difference in log 2 E between the parental wild-type peptide and the mutant variant following phage-display selection. See methods for a description of the strategy used for selecting individual mutations. FIG. 20B, All possible combinations of 16 selected single mutations (coloured using the Taylor scale) at 11 residue locations were combined to create a phage-display library with 3585 mutation combinations. The library included the parental HD2 sequence and single mutations as well. Library cloning, screening and analysis was performed as described in the examples.
Combinations of different mutations identified by saturation mutagenesis selection were then studied to see if they could result in additive or cooperative effects, allowing further evolution of peptide function in a desired direction. Traditionally, the selection of two or more mutations in combination is guided by knowledge of the structure of the protein-peptide interface. This approach works well when designing agents against a single target where the interface structure has been experimentally characterised but is challenging when designing agents active against multiple targets, where the interface structures have not been experimentally characterised. To systematically identify mutation combinations that work well against multiple structurally related targets we explored the possibility of using phage-display to select combinations of mutations that bind CC or XC classes of chemokines. […]
As CC and XC binding peptides appeared to have a different improving mutation spectrum we selected mutations using an algorithm that optimizes CC and XC improving mutations separately. […] The library quality was assessed by NGS AmpliconEZ (50,000 reads), and 3584 of 3585 inserts were identified. […]

[6] = biological target: CXCL12 (Homo sapiens, UniProt P48061); format: cell-based; parameters: activity in inhibiting migration of activated T cells in comparison to HD2_Y5W: dose or concentration left out as unconfirmed; details: peptides final concentration as printed, chemokine at EC80
CXCL12, sequence (P48061 22-89 limits assumed): as above
Method: FIG. 22. Effect of selected combinatorial HD2 mutations on chemotaxis. FIG. 22A. Box-whisker plot showing the effect of the exemplar single and combinatorically mutant (CM) HD2 peptides on activated-T cell (ATC) migration induced by CXCL12. All experiments were performed as at least three technical and three biological replicates, and individual data points are indicated. […] HD2SCR is a scrambled version of HD2. […] Statistically significant differences (compared to control, HD2_Y5W, coloured blue), using Dunnett's test with correction for multiple comparisons, are indicated by asterisks: ****=P≤0.0001, ***=P≤0.001, **=P≤0.01, *=P≤0.05. All comparisons were made to HD2_Y5W, as it is present in CM539, CM452, and CM304. […] Technical replicates are shown as individual data points. […] The response curve (solid blue line) and its 95% confidence interval (grey ribbon) were calculated using a 4-parameter log-logistic plot. The agonist and estimated IC50 (dotted green line) are indicated.
as §3
Migration assays using THP1, activated T-cell (ATC) and J:CXCR1 (Jurkat cells stably transfected with CXCR1 receptor) were performed as described previously. IC50 experiments were performed at the EC80 dose of chemokine. EC80 was calculated by fitting a chemokine dose-response curve with 3 parameters (fixing the top to 100%). IC50 was calculated by fitting an inhibitor response curve with 4 parameters. R-packages used were ggupset_0.3.0, DescTools_0.99.44, and drc_3.0-1.

Substance	inhibition of cell migration [1]	inhibition of cell migration [2]	inhibition of cell migration [3]	Chemokines Bound [4]	binding in phage display [5]	activity in inhibiting migration of activated T cells in comparison to HD2_Y5W [6]
CVEITYFGDFGDPSQD [EB429]	inhibit cell migration	inhibit cell migration	inhibit cell migration	CXL10, CXL11,; also recorded: SDF1, CXL13		
DEDDWDAYAPIWCYFT-NH2 [CM304, DEDDWDAYAPIWCYFT]					enhanced binding	significantly enhanced activity
DDDDWDDYAPITCYFD [CM539]					enhanced binding	significantly enhanced activity
DDDDWDAYAPIWCYFT [CM452]					enhanced binding	significantly enhanced activity
